Data on nine molecules can be found in ChEMBL document CHEMBL1201862, “PubChem BioAssay data set” (2004).

Test systems include A498; A549; HCC 2998; HL-60; HOP-18; HOP-62; KM-20L2; KM12; LXFL 529; OVCAR-3; OVCAR-5; SF-268; SK-MEL-28; SNB-75; UACC-62; DU-145.
Assay in all cases: NCI anticancer screen, dose series, 48 h

Each structure is given as a SMILES string.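 48-hour exposure; five concentrations; linearly interpolated endpoints. GI50 = concentration required for 50% inhibition of growth.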 The source made the active and inactive calls. Cut-off read from the data, not from the text of the source: active = GI50 up to about 1.1 µM and inactive = higher. Some results are limits rather than exact numbers.

Regarding `CC1(C)C2CCC3(C2)CS(=O)(=O)N2OC231` (centres undefined), the GI50 is 25.2 µM (inactive) with A498; > 100 µM (inactive) in the assay on A549; 38.1 µM (inactive) in the assay with HCC 2998; 15.4 µM (inactive) in the assay with HL-60; 17.6 µM (inactive) with HOP-18; 79.8 µM (inactive) in the assay with HOP-62. The GI50 with KM-20L2 was 16.3 µM (inactive); with KM12, 19.6 µM (inactive); in the assay on LXFL 529 it was 16.7 µM (inactive); with OVCAR-3, 19.1 µM (inactive); in the assay on OVCAR-5 it was 23.7 µM (inactive); in the assay on SF-268, 26.4 µM (inactive). Also, the results for the GI50 with SK-MEL-28, with SNB-75 and in the assay with UACC-62 were 25.4 µM (inactive), 17 µM (inactive) and 17.5 µM (inactive), respectively.

As to `Nc1nncc2c1c(Br)cn2C1OC(CO)C(O)C1O` (centres undefined), the GI50 was > 67.6 µM (inactive) in the assay with A498; 31.7 µM (inactive) in the assay on A549; 5.27 µM (inactive) with HCC 2998; 3.73 µM (inactive) in the assay on HL-60; > 67.6 µM (inactive) in the assay on HOP-18; 22 µM (inactive) with HOP-62. The GI50 was 44 µM (inactive) with KM-20L2; 43.9 µM (inactive) in the assay on KM12; 23.7 µM (inactive) in the assay with LXFL 529; 6.62 µM (inactive) with OVCAR-3; > 62.2 µM (inactive) with OVCAR-5; 35.1 µM (inactive) with SF-268. Further, the GI50 with SK-MEL-28 was > 100 µM (inactive); in the assay on SNB-75 it was 13.7 µM (inactive); in the assay on UACC-62, 56.9 µM (inactive).

Consider `O=C(/C=C\c1ccccc1O)c1ccc(O)cc1O`, for which the GI50 is > 100 µM (inactive) in the assay with A498; > 100 µM (inactive) in the assay on A549; > 100 µM (inactive) in the assay on HCC 2998; 81.8 µM (inactive) in the assay on HL-60; 55.7 µM (inactive) in the assay with HOP-18; > 100 µM (inactive) in the assay on HOP-62. Also, the GI50 in the assay on KM-20L2, with KM12, in the assay on LXFL 529, in the assay on OVCAR-3, in the assay on OVCAR-5 and with SF-268 was > 100 µM (inactive) each time. Moreover, the GI50 in the assay with SK-MEL-28 was > 100 µM (inactive); with SNB-75 it was 0.0128 µM (active); with UACC-62, > 100 µM (inactive).

Regarding `C=C=C(Sc1ccccc1)C(C)(C)O`, the GI50 in the assay with A498, with DU-145, in the assay with HCC 2998, in the assay on HL-60, in the assay with HOP-18 and in the assay with KM-20L2 was > 100 µM (inactive) in each case. Besides, the GI50 in the assay on KM12, with LXFL 529, with OVCAR-3, in the assay with OVCAR-5, with SF-268 and in the assay on SK-MEL-28 was > 100 µM (inactive) each time. Besides, the GI50 with SNB-75 was 38.6 µM (inactive); with UACC-62, > 100 µM (inactive).

Consider `Cc1ccc([N+](=O)[O-])cc1NC(=O)/C(CC(=O)c1sc(C(N)=S)nc1C)=N\N`, for which the GI50 is > 100 µM (inactive) in the assay on A498; 46.2 µM (inactive) with A549; > 100 µM (inactive) in the assay on HCC 2998; 43.9 µM (inactive) in the assay with HL-60; 71.3 µM (inactive) with HOP-18; > 100 µM (inactive) in the assay on HOP-62. Further, the GI50 with KM-20L2 is > 100 µM (inactive); in the assay on KM12, 54.1 µM (inactive); in the assay on LXFL 529, 41.7 µM (inactive); in the assay with OVCAR-3 it was 26.9 µM (inactive); with OVCAR-5, > 100 µM (inactive); in the assay with SF-268 it was > 100 µM (inactive). Besides, the GI50 with SK-MEL-28, with SNB-75 and with UACC-62 was > 100 µM (inactive) in each case.

For the molecule `C/C(CC(=O)NC1=CC=C(NC(=O)C/C(C)=N\Nc2ccccc2)CC1)=N/Nc1ccccc1`, the GI50 was > 100 µM (inactive) in the assay on A498; > 100 µM (inactive) in the assay with A549; > 100 µM (inactive) in the assay with HCC 2998; 50.1 µM (inactive) with HL-60; > 100 µM (inactive) in the assay on HOP-18; > 100 µM (inactive) with HOP-62. Further, the GI50 with KM-20L2, in the assay on KM12, in the assay with LXFL 529, in the assay on OVCAR-3, with OVCAR-5 and in the assay with SF-268 was > 100 µM (inactive) throughout. Besides, the GI50 in the assay with SK-MEL-28, with SNB-75 and with UACC-62 was > 100 µM (inactive) throughout.

For the molecule `CC(=O)c1ccc(NC(=O)C(=O)Nn2c(S)nc3ccccc3c2=O)cc1`, the GI50 in the assay on A498, in the assay on A549, with HCC 2998, with HL-60, in the assay with HOP-18 and with HOP-62 was > 100 µM (inactive) each time. The GI50 with KM-20L2, in the assay on KM12, in the assay with LXFL 529, in the assay on OVCAR-3, with OVCAR-5 and with SF-268 was > 100 µM (inactive) each time. The GI50 in the assay on SK-MEL-28, in the assay with SNB-75 and in the assay on UACC-62 was > 100 µM (inactive) throughout.

As to `N#CCc1ccc(C(C#N)/C(CCCC(=O)Nc2cccc([N+](=O)[O-])c2)=N\NC(=O)NN)cc1` (centres undefined), the GI50 in the assay with A498, in the assay with A549, in the assay on HCC 2998, in the assay on HL-60, in the assay on HOP-18 and in the assay on HOP-62 was > 100 µM (inactive) each time. In addition, the GI50 with KM-20L2, with KM12, in the assay on LXFL 529, with OVCAR-3, in the assay on OVCAR-5 and with SF-268 was > 100 µM (inactive) each time. The GI50 with SK-MEL-28, in the assay on SNB-75 and in the assay with UACC-62 was > 100 µM (inactive) in each case.

For the molecule `C=C[C@]1(C)CCC2=C(CCC3C2(C)CCC[C@]3(C)CO)C1` (some centres undefined), the GI50 is > 100 µM (inactive) with A498; 40.6 µM (inactive) in the assay with A549; 43.7 µM (inactive) with HCC 2998; 27.9 µM (inactive) in the assay on HL-60; > 100 µM (inactive) with HOP-18; > 100 µM (inactive) with HOP-62. Also, the GI50 in the assay on KM-20L2 was 20.2 µM (inactive); in the assay on KM12 it was 38.4 µM (inactive); in the assay with LXFL 529, 56.1 µM (inactive); with OVCAR-3, 40 µM (inactive); in the assay with OVCAR-5, > 100 µM (inactive); with SF-268, 33.4 µM (inactive). Besides, the GI50 in the assay with SK-MEL-28 was > 100 µM (inactive); in the assay with SNB-75 it was 61.5 µM (inactive); in the assay with UACC-62 it was 76.9 µM (inactive).
